Reference: patent publication EP4596574A1, “GLP-1/GCG/GIP TRIPLE-RECEPTOR AGONIST AND USE THEREOF” (Sunshine Lake Pharma Co., Ltd., priority 2022, dated 2024)
Marks after values point to notes of the source that are not given here.

How the values were obtained:
[1] = biological target: T1, GLP-1R (Homo sapiens, UniProt P43220); experiment: In vitro cell activity, cAMP production in HEK293 cells expressing GLP-1R; type: cell-based
T1 construct: expressed in transfected cells; host or cells: HEK293 (HEK293-GLP-1R)
Outline: (§1)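 Assay format: cells at 4×10^5 cells/mL, cAMP sensed by d2/cryptate FRET pair, dual-wavelength read at 665 and 620 nm. Potency expressed as EC50 from nonlinear fitting.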

[2] = biological target: T2, GCGR (Homo sapiens, UniProt P47871); experiment: In vitro cell activity, cAMP production in HEK293 cells expressing GCGR; type: cell-based
T2 construct: expressed in transfected cells; host or cells: HEK293 (HEK293-GCGR)
Outline: as §1

[3] = biological target: T3, GIPR (Homo sapiens, UniProt P48546); experiment: In vitro cell activity, cAMP production in HEK293 cells expressing GIPR; type: cell-based
T3 construct: expressed in transfected cells; host or cells: HEK293 (HEK293-GIPR)
T3 sequence (P48546 22-466): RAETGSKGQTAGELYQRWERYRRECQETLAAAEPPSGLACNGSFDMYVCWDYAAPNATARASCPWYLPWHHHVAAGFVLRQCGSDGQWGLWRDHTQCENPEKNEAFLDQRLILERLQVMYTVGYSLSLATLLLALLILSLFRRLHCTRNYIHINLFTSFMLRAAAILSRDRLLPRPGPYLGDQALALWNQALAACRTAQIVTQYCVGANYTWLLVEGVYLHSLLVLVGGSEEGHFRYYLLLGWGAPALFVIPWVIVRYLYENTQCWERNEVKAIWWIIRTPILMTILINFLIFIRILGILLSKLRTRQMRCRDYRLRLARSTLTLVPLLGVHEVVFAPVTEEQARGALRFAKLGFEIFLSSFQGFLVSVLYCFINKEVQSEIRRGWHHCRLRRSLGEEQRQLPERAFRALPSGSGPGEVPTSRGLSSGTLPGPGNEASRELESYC
Outline: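 cAMP accumulation is quantified by homogeneous TR-FRET (cAMP-d2 plus anti-cAMP cryptate) in GIPR-expressing HEK293 cells seeded from a 4×10^5 cells/mL suspension and treated with compound. The signal ratio is plotted against concentration and fitted to a four-parameter curve to give EC50.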

[4] = Glucose tolerance assessment in normal C57BL/6 mice (Example 4); type: in vivo; settings: for Blood glucose level (mM) 15 min / Blood glucose level (mM) 30 min / Blood glucose level (mM) 60 min / Blood glucose level (mM) 90 min / Blood glucose level (mM) 0 min / AUC0-90 min: 3 nmol/kg s.c. single dose, 24 h after administration; for Blood glucose level (mM) 15 min: 15 min after 2 g/kg glucose i.p.; for Blood glucose level (mM) 30 min: 30 min after 2 g/kg glucose i.p.; for Blood glucose level (mM) 60 min: 60 min after 2 g/kg glucose i.p.; for Blood glucose level (mM) 90 min: 90 min after 2 g/kg glucose i.p.; for Blood glucose level (mM) 0 min: basal before 2 g/kg glucose i.p.; for AUC0-90 min: blood glucose AUC, 2 g/kg glucose i.p.
Protocol: Twelve hours after the single administration, the animals were fasted for 12 hours and had free access to water. Blood was collected from the tail vein to determine the basal blood glucose level of each group of animals, and then 2 g/kg glucose solution was injected intraperitoneally. Blood glucose was tested at 15, 30, 60, and 90 min after glucose administration. The blood glucose concentration-time curve was drawn according to the blood glucose values measured at different time points, and the AUC0~90min of each dose group was calculated as shown in Table 4 and Figure 1. Table 4: Effects of single administration of HEC-PT74, HEC-PT75, HEC-PT77, HEC-PT78, HEC-PT80, and HEC-PT82 on glucose tolerance in normal C57 mice 24 h after administration

[5] = In vivo efficacy evaluation in db/db mouse model (blood glucose); design: species or system db/db mice
Protocol: Blood glucose was tested before each administration.

T1 sequence (P43220 24-463, species assumed): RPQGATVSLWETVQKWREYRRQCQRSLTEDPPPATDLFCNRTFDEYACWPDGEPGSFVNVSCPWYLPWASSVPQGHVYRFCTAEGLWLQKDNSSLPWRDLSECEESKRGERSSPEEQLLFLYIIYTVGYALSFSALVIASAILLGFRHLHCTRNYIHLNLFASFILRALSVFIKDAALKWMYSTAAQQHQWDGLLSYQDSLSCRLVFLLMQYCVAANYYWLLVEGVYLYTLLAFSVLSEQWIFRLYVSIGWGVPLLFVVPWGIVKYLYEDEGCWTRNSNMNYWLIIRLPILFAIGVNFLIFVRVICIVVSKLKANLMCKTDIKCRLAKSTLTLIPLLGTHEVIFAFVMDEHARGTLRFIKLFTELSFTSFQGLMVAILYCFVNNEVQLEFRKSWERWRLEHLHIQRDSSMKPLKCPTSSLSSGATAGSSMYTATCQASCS
T2 sequence (P47871 26-477, species assumed): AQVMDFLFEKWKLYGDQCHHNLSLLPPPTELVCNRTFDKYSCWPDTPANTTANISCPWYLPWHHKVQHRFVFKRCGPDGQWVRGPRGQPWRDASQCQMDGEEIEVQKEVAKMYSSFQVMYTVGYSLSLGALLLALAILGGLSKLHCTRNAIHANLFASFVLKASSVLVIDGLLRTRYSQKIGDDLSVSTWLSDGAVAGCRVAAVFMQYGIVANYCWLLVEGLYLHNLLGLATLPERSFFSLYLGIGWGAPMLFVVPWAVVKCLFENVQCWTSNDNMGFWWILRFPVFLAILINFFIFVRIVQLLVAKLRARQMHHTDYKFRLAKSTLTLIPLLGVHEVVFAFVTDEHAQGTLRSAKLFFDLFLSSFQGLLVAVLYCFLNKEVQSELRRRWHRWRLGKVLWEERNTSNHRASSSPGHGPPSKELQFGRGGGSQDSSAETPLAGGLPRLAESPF

SMILES | EC50 [1] [nM] | EC50 [2] [nM] | EC50 [3] [nM] | Blood glucose level (mM) 15 min [4] [mM] | Blood glucose level (mM) 30 min [4] [mM] | Blood glucose level (mM) 60 min [4] [mM] | Blood glucose level (mM) 90 min [4] [mM] | Blood glucose level (mM) 0 min [4] [mM] | AUC0-90 min [4] | other results
CC[C@H](C)[C@H](NC(=O)[C@H](Cc1ccccc1)NC(=O)[C@H](C)NC(=O)[C@H](CCCNC(=N)N)NC(=O)[C@H](CCC(N)=O)NC(=O)[C@H](C)NC(=O)[C@H](CCCCNC(=O)COCCOCCNC(=O)CC[C@H](NC(=O)CCCCCCCCCCCCCCCCC(=O)O)C(=O)O)NC(=O)[C@H](CCC(=O)O)NC(=O)[C@H](CC(=O)O)NC(=O)[C@H](CC(C)C)NC(=O)[C@H](CC(C)C)NC(=O)[C@@H](NC(=O)[C@H](CO)NC(=O)[C@H](Cc1ccc(O)cc1)NC(=O)[C@H](CC(=O)O)NC(=O)[C@H](CO)NC(=O)[C@@H](NC(=O)[C@](C)(Cc1ccccc1F)NC(=O)[C@@H](NC(=O)CNC(=O)[C@H](Cc1c[nH]cn1)NC(=O)C(C)(C)NC(=O)[C@@H](N)Cc1ccc(O)cc1)[C@@H](C)O)[C@@H](C)O)[C@@H](C)CC)C(=O)N[C@@H](CCC(=O)O)C(=O)N[C@@H](Cc1ccc(O)cc1)C(=O)N[C@@H](CC(C)C)C(=O)N[C@@H](CC(C)C)C(=O)N[C@@H](C)C(=O)NCC(=O)NCC(=O)N1CCC[C@H]1C(=O)N[C@@H](CO)C(=O)N[C@@H](CO)C(=O)NCC(=O)N[C@@H](C)C(=O)N1CCC[C@H]1C(=O)N1CCC[C@H]1C(=O)N1CCC[C@H]1C(=O)N[C@@H](CO)C(=O)O [HEC-PT75] | 0.108 | 0.0672 | 0.0377 | 11.1 ± 3.1 | 8.9 ± 3.1 | 7.4 ± 2.0 | 5.6 ± 0.7 | 4.0 ± 0.4 | 682.0±166.7^a | improvement of glucose tolerance compared with LY3298176 ([4]; 24 hours after a single administration, 3 nmol/kg): more effective in improving glucose tolerance than the positive control LY3298176
CC[C@H](C)[C@H](NC(=O)[C@H](Cc1ccccc1)NC(=O)[C@H](CCC(=O)O)NC(=O)[C@H](CCC(N)=O)NC(=O)[C@H](CCC(N)=O)NC(=O)[C@H](C)NC(=O)[C@H](CCCCNC(=O)COCCOCCNC(=O)CC[C@H](NC(=O)CCCCCCCCCCCCCCCCCCC(=O)O)C(=O)O)NC(=O)[C@H](CCC(=O)O)NC(=O)[C@H](CC(=O)O)NC(=O)[C@H](CC(C)C)NC(=O)[C@H](CC(C)C)NC(=O)[C@@H](NC(=O)[C@H](CO)NC(=O)[C@H](Cc1ccc(O)cc1)NC(=O)[C@H](CC(=O)O)NC(=O)[C@H](CO)NC(=O)[C@@H](NC(=O)[C@](C)(Cc1ccccc1F)NC(=O)[C@@H](NC(=O)CNC(=O)[C@H](CCC(N)=O)NC(=O)C(C)(C)NC(=O)[C@@H](N)Cc1ccc(O)cc1)[C@@H](C)O)[C@@H](C)O)[C@@H](C)CC)C(=O)N[C@@H](CCC(=O)O)C(=O)N[C@@H](Cc1c[nH]c2ccccc12)C(=O)N[C@@H](CC(C)C)C(=O)N[C@@H](CC(C)C)C(=O)N[C@@H](CCC(=O)O)C(=O)NCC(=O)NCC(=O)N1CCC[C@H]1C(=O)N[C@@H](CO)C(=O)N[C@@H](CO)C(=O)NCC(=O)N[C@@H](C)C(=O)N1CCC[C@H]1C(=O)N1CCC[C@H]1C(=O)N1CCC[C@H]1C(=O)N[C@@H](CO)C(=O)O [HEC-PT78] | 0.532 | 4.5 | 0.215 | 15.8 ± 2.6 | 12.0 ± 2.5 | 9.2 ± 1.5 | 7.3 ± 0.7 | 4.6 ± 0.6 | 927.1±135.2^a | –
CC[C@H](C)[C@H](NC(=O)[C@H](Cc1ccccc1)NC(=O)[C@H](C)NC(=O)[C@H](CCCNC(=N)N)NC(=O)[C@H](CCC(N)=O)NC(=O)[C@H](C)NC(=O)[C@H](CCCCNC(=O)COCCOCCNC(=O)CC[C@H](NC(=O)CCCCCCCCCCCCCCCCCCC(=O)O)C(=O)O)NC(=O)[C@H](CCC(=O)O)NC(=O)[C@H](CC(=O)O)NC(=O)[C@H](CC(C)C)NC(=O)[C@H](CC(C)C)NC(=O)[C@@H](NC(=O)[C@H](CO)NC(=O)[C@H](Cc1ccc(O)cc1)NC(=O)[C@H](CC(=O)O)NC(=O)[C@H](CO)NC(=O)[C@@H](NC(=O)[C@](C)(Cc1ccccc1F)NC(=O)[C@@H](NC(=O)CNC(=O)[C@H](CCC(N)=O)NC(=O)C(C)(C)NC(=O)[C@@H](N)Cc1ccc(O)cc1)[C@@H](C)O)[C@@H](C)O)[C@@H](C)CC)C(=O)N[C@@H](CCC(=O)O)C(=O)N[C@@H](Cc1ccc(O)cc1)C(=O)N[C@@H](CC(C)C)C(=O)N[C@@H](CC(C)C)C(=O)N[C@@H](CCC(=O)O)C(=O)NCC(=O)NCC(=O)N1CCC[C@H]1C(=O)N[C@@H](CO)C(=O)N[C@@H](CO)C(=O)NCC(=O)N[C@@H](C)C(=O)N1CCC[C@H]1C(=O)N1CCC[C@H]1C(=O)N1CCC[C@H]1C(=O)N[C@@H](CO)C(=O)O [HEC-PT85] | 0.255 | 0.602 | 0.237 | – | – | – | – | – | – | blood glucose after administration ([5]; db/db mice, 10 nmol/kg): significantly reduce blood glucose; Random blood glucose (mM) D0 ([5]; db/db mice, 10 nmol/kg s.c. once every three days, D0 (before first dose)): 26.2 ± 2.8 mM; Random blood glucose (mM) D3 ([5]; db/db mice, 10 nmol/kg s.c. once every three days, D3): 11.8 ± 3.6 mM; Random blood glucose (mM) D4 ([5]; db/db mice, 10 nmol/kg s.c. once every three days, D4): 17.6 ± 3.1 mM; Random blood glucose (mM) D5 ([5]; db/db mice, 10 nmol/kg s.c. once every three days, D5): 20.2 ± 5.5 mM; Random blood glucose (mM) D6 ([5]; db/db mice, 10 nmol/kg s.c. once every three days, D6): 17.3 ± 3.4 mM; Random blood glucose (mM) D7 ([5]; db/db mice, 10 nmol/kg s.c. once every three days, D7): 21.3 ± 3.5 mM; Random blood glucose (mM) D10 ([5]; db/db mice, 10 nmol/kg s.c. once every three days, D10): 11.8 ± 3.8 mM; Random blood glucose (mM) D13 ([5]; db/db mice, 10 nmol/kg s.c. once every three days, D13): 14.7 ± 4.9 mM; Random blood glucose (mM) D16 ([5]; db/db mice, 10 nmol/kg s.c. once every three days, D16): 12.8 ± 3.9 mM; Random blood glucose (mM) D19 ([5]; db/db mice, 10 nmol/kg s.c. once every three days, D19): 13.7 ± 2.5 mM; Random blood glucose (mM) D22 ([5]; db/db mice, 10 nmol/kg s.c. once every three days, D22): 17.2 ± 4.2 mM; Random blood glucose (mM) D25 ([5]; db/db mice, 10 nmol/kg s.c. once every three days, D25): 15.7±4.5^a mM; Random blood glucose (mM) 6 h ([5]; db/db mice, 10 nmol/kg s.c., 6 h): 15.3 ± 5.4 mM; Random blood glucose (mM) 24 h ([5]; db/db mice, 10 nmol/kg s.c., 24 h): 10.1 ± 3.7 mM; Random blood glucose (mM) 48 h ([5]; db/db mice, 10 nmol/kg s.c., 48 h): 12.9 ± 4.2 mM; time at which blood glucose levels reached the lowest level ([5]; db/db mice, 10 nmol/kg, after administration): about 24 hours; blood glucose lowering after long-term administration compared with LY3298176 ([5]; db/db mice, long-term repeated administration): not inferior to the positive control LY3298176; blood glucose reducing effect after administration compared with LY3298176 ([5]; db/db mice, same dose 10 nmol/kg): slightly better than the positive control LY3298176; blood glucose level after long-term administration ([5]; type II diabetes model db/db mice): significantly improve the blood glucose level
